Measurements reported in article PMC12351953, “SCAN-ACT: adoptive T cell therapy target discovery through single-cell transcriptomics” (Genome Medicine, 2025).

Biological target: HLA-A*02:01 (Homo sapiens, UniProt P04439, D140Y/D185E/D98H/E176V/E277Q/G131W/G231S/I119V/I121R/I166T/I218V/L300P/L318F/N151K/N90K/P208A/P217A/Q86G/Q94H/R138H/R169H/T345S)
Assay: IMMUNE on-yeast peptide competition against biotinylated indicator peptide
Type: binding
Conditions: yeast-displayed HLA, 0.5 µM biotinylated indicator peptide (Bio-KLT), 20-fold more concentrated test peptide, overnight to equilibrium, flow cytometry
Description: To construct plasmids driving the expression of non-covalent HLA-I heterodimers, the commercially available backbone vector pRS315 was modified. Briefly, the entire expression cassette containing genes encoding the Aga2 leader sequence, the ectodomain of a particular HLA-I heavy chain allele (A*02:01 or A*11:01 or B*35:01 or C*12:03), the Aga2p yeast native protein subunit, an HA epitope tag, and the MFα terminator was cloned to the downstream of the GAL10 promoter in pRS315, so that the expressed HLA-I heavy chain ectodomain was fused to the N-terminus of Aga2p for yeast surface display. […]
A sufficient amount of galactose-induced yeast cells was collected by centrifugation and labeled by primary antibodies in PBS + 0.5% bovine serum albumin (BSA) for 1 h on ice. […] FL1 and FL4 fluorescence channels were selected for Alexa Fluor 488 and Alexa Fluor 647, respectively, according to the fluorophore selected at the secondary labeling step as mentioned above. […]
To design indicator peptides appropriate for evaluation of HLA peptide binding on the surface of yeast cells and for downstream competitive assay development, the reported epitope repertoire for each aforementioned HLA allele from the Immune Epitope Database was carefully analyzed. […]

binding to A*02:01 (IMMUNE): bound
Sequence: RLHRIIPKI [test peptide from SSX1 (printed SSXI), pMHC target identified through PS-TRACT]
